Experimental findings from ChEMBL document CHEMBL5149973, “Agaricus bisporus-Derived Glucosamine Hydrochloride Facilitates Skeletal Injury Repair through Bmp Signaling in Zebrafish Osteoporosis Model” (J Nat Prod, 2021) are described below.

Assay [1] is filed under the species Danio rerio. Kind of assay: Induction of Zebrafish Larva cartilage development assessed as increase in bone mineralization at 0.05 to 0.3 % measured at 6 days post fertilization by Alizarin red staining based assay. The assay is classed as functional. The conditions noted are these: dose 0.05-0.3 %, time 6.0 day.
The species named for assay [2] is Danio rerio. The experiment in a line: Induction of Zebrafish embryo skeletal development assessed as upregulation of col1a2 gene expression at 0.05 to 0.3 % measured after 72 hrs post fertilization by […] analysis. The assay is classed as functional, tissue-based. The conditions noted are these: dose 0.05-0.3 %. For orientation: An ELISA detects its analyte on a solid surface through an enzyme-linked reagent.

The subject of a further assay is Osteoblast. The experiment in a line: Induction of osteoblast differentiation in transgenic osx mCherry Zebrafish embryo assessed as increase in Sox9a mRNA expression in fin at 0.1 % measured after 15 days by semiquantitative PCR analysis. The assay is classed as functional, tissue-based. The conditions noted are these: Danio rerio, time 15.0 day.
Assay [3] is filed under the species Danio rerio. Kind of assay: Anti-osteoporosis activity in FAC-induced skeletal injury Zebrafish larvae assessed as increase in Sox9a mRNA expression level measured for 10 day post fertilization by semiquantitative-PCR analysis. It counts as functional, organism-based. The conditions noted are these: Larva.
The species named for assay [4] is Danio rerio. Kind of assay: Induction of Zebrafish embryo skeletal development assessed as nuclear localization of p-Smad1 in head at 0.1 % measured at 24 to 72 hrs post fertilization by DAPI staining based analysis. It counts as functional, tissue-based. The conditions noted are these: time 24-72 hrs.
For assay [5], the species on record is Danio rerio. The experiment in a line: Suppression of Bmp signaling in Zebrafish embryo assessed as reduction in indistinctive tail tissue at 0.1 % measured at 26 hrs post fertilization in presence of dorsomorphin. The assay is classed as functional. More on the design: scale not given: the % may be the effect or the level left.
The species entered for assay [6] is Danio rerio. The experiment in a line: Suppression of Bmp signaling in Zebrafish tBr injected mRNA embryos assessed as reduction in slight loss of tail tissue at 2.5 uM measured at 26 hrs post fertilization. On the set-up: scale not given: the % may be the effect or the level left. The assay is classed as functional, Embryo.

Calls of active or inactive are those of the source. The calls are words filed in the database; no cut-off is given here.

As for `Cl.N[C@@H]1[C@@H](O)[C@H](O)[C@@H](CO)O[C@H]1O`, the outcome in the assay filed under Danio rerio [1], in the assay listed under Danio rerio [2], in the assay with Osteoblast, in the assay filed under Danio rerio [3] and in the assay listed under Danio rerio [4] was Active. The Activity in the assay listed under Danio rerio [5] turned out to be 20%; in the assay listed under Danio rerio [6], 80%.
